According to paper PMC10454375, “Cell-Impermeable Inhibitors Confirm That Intracellular Human Transglutaminase 2 Is Responsible for the Transglutaminase-Associated Cancer Phenotype” (International Journal of Molecular Sciences, 2023):
Peptide text beside a SMILES is read from it. * marks the point of attachment. X1 = C=CC(=O)NCCCCC(NC(=O)OCc1ccccc1)C(=O)N1CCN(C(=O)C(CCC(=O)*)NC(=O)c2cccc3ccccc23)CC1

What was measured:
SCC-13 cells = experiment: Cell proliferation, SCC-13; format: cell-based, human; details: concentrations up to 100 µM
Description: (§1) Figure 4 Treatment of cancer cells with cell-permeable and cell-impermeable inhibitors. (A) HaCaT and SCC-13 are epidermis-derived cutaneous squamous cell carcinoma cells that were treated for 10 h with NCEG-RHB prior to imaging using a spinning disc confocal microscope. NCEG-RHB localization is detected adjacent to the nuclei (N) in both cell types and is indicated by red arrows. The HaCaT cell cultures were also stained for 15 min with MitoTracker Green before imaging. MitoTracker Green detects mitochondria membrane proteins inside the cell and the labelling is indicated by green arrows. White scale bars = 100 µm. (B) SCC-13 cells treated with cell-impermeable inhibitor 18 (NCEG2) and cell-permeable inhibitors NC9, AA9, and NCEG-RHB. Scale bars represent 50 µm; (*) p value < 0.001 (C) HaCaT cells treated with cell-impermeable inhibitor 18 (NCEG2) and cell-permeable inhibitors NC9 and AA9. Scale bars represent 50 µm; (*) p value < 0.001. (D) MDA-MB-436 cells treated with cell-impermeable 18 (NCEG2) and with cell-permeable inhibitors NC9, AA9 and NCEG-RHB. Experiments were carried out in triplicate and are represented as average ± SD of the percentage of living cells; (**) p value < 0.01.

MDA-MB-436 cells [1] = experiment: Cell proliferation assay, MDA-MB-436; format: cell-based; details: concentrations up to 100 µM, 48 h
Description: (§2) MDA-MB-468 cells were cultured in Dulbecco’s Modified Eagle Medium (DMEM)/F-12 DMEM, Gibco Laboratories, New York, NY, USA), 10% FBS (Gibco Laboratories, New York, NY, USA), 50 U/mL penicillin, and 50 μg/mL streptomycin (Gibco Laboratories, New York, NY, USA), while MDA-MB-231 and MDA-MB-436 cells were cultured in DMEM High Glucose with/stable L-Glutamine (EuroClone, Pero, MI, Italy), 10% FBS, and antibiotics, all grown at 37 °C and in 5% CO2 humidified atmosphere.
(§3) The compounds were added to the cultures at the concentrations of 25, 50, 75, and 100 μM and 0.1% DMSO represented the negative control. After 48 h, the cells were trypsinized for 2 min at 37 °C, trypsin was inactivated using 1 mL of the recovered supernatants (containing 10% FBS), centrifuged at room temperature 5 min at 1200 rpm, washed with PBS and resuspended in complete medium. Finally, 50 μL of cells were diluted in 500 μL of Count & Viability Reagent (Luminex, Prodotti Gianni, Milan, Italy) and analyzed by MUSE®.
The experiments were carried out in triplicate and the average ± SD of the percentage of living cells was reported. […]
Figure 4 Treatment of cancer cells with cell-permeable and cell-impermeable inhibitors. […] NCEG-RHB localization is detected adjacent to the nuclei (N) in both cell types and is indicated by red arrows. […]

HaCaT cells = experiment: Cell proliferation, HaCaT; format: cell-based, human; details: concentrations up to 100 µM
Description: as §1

MDA-MB-231 cells [2] = experiment: Cell proliferation assay, MDA-MB-231; format: cell-based; details: concentrations up to 100 µM, 48 h
Description: as §2, §3
(§4) The experiments were carried out in triplicate and the average ± SD of the percentage of living cells was reported. Statistical analysis was performed calculating p value by a Student’s t-test, two-tailed, with homovariance and significance expressed by (*) p value < 0.05.
(§5) Supplementary cellular evaluation figures
(§6) Concentration (µM) Concentration (µM)
(§7) Figure S10. […]

MDA-MB-468 cells = experiment: Cell proliferation assay, MDA-MB-468; format: cell-based; details: concentrations up to 100 µM, 48 h
Description: as §2, §3, §4, §5, §6, §7

MDA-MB-231 cells [3] = experiment: Real-time cell migration assay (xCELLigence RTCA), MDA-MB-231; format: cell-based; details: 25 µM, 24 h
Description: (§8) We assayed the motility of MDA-MB-436 cells in the presence of vehicle or TG2 inhibitors 18 (NCEG2), 19 (NCEG-RHB), and NC9 at 25 μM concentration with the xCELLigence RTCA system (Real-Time Cell Analyzer System, Acea Biosciences Inc., San Diego, CA, USA). About 3 × 10^5 cells/wells were put into the top chambers of CIM-16 plates and the bottom chambers were filled with medium containing 5% FBS (Gibco Laboratories, New York, NY, USA) as a chemoattractant. Signal detection was done every 15 min for 24 h and each determination was performed in triplicate. Impedance values were expressed as a dimensionless parameter (Cell Index, CI), and values greater than 0.1 were considered positive. The rate of cell migration was also quantified by calculating the steepness, inclination, gradient, and changing rate of the CI curves over time (Slope).
(§9) A Vehicle B 0.025 Vehicle
(§10) C 2.5 Vehicle D 0.15 Vehicle
(§11) Figure S11. Migration assay: A) Dynamic monitoring of the migration of MDA-MB-436 cells.
(§12) We recorded for 24 hours the migration of the cells in the presence only of the vehicle or of the indicated TG2 inhibitors, used at 25 µM concentrations. Data are reported as Cell Index (CI) values ± SD. […] We recorded for 24 hours the migration of the cells in the presence only of the vehicle or of the indicated TG2 inhibitors, used at 25 µM concentrations. […]

MDA-MB-436 cells [4] = experiment: Real-time cell migration assay (xCELLigence RTCA), MDA-MB-436; format: cell-based; details: 25 µM, 24 h
Description: as §8, §9, §10, §11, §12

In the case of `C=CC(=O)NCCCCC(NC(=O)OCc1ccccc1)C(=O)N1CCN(C(=O)C(CCC(=O)NCC(=O)NCC(=O)NCC(=O)NC(CC(=O)O)C(=O)NC(CC(=O)O)C(=O)NC(CC(=O)O)C(=O)O)NC(=O)c2cccc3ccccc23)CC1` (stereo not shown) [Compound 18] (X1-GGGDDD-OH; configuration not given here), the “effect on cell proliferation” value (SCC-13 cells) is reported as “did not have any effect on cell proliferation”, the “effect on cell proliferation” value (MDA-MB-436 cells [1]) is reported as “did not have any effect on cell proliferation” and the “effect on cell proliferation” value (HaCaT cells) is reported as “did not have any effect on cell proliferation”. For the same compound, the “effect on cell proliferation” value (MDA-MB-231 cells [2]) was “did not have any effect on cell proliferation”, the “effect on cell proliferation” value (MDA-MB-468 cells) was “did not have any effect on cell proliferation” and the “effect on cell migration” value (MDA-MB-231 cells [3]) was “failed to suppress migration”. For the same compound, the “effect on cell migration” value (MDA-MB-436 cells [4]) was “failed to suppress migration”.
